Reference: ChEMBL document CHEMBL1201862, “PubChem BioAssay data set” (2004)
The source made the active and inactive calls.

Legend:
[1] = NIH-3T3 fibroblast cytotoxicity, dose response, cytotoxicity control, cell-based, fluorescence, Alamar Blue, secondary assay (AID 2327); type: functional;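 further: NIH-3T3 mouse fibroblasts cultured with fluconazole at 8 µg/mL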
[2] = tested on: Streptococcus sp. 'group A'; assay: growth inhibition of control SK(-) GAS strain, dose response, counter-screen for streptokinase expression inhibitor project, luminescence, kanamycin, BacTiterGlo, confirmation (AID 1900); type: functional, organism-based
[3] = C. albicans growth with fluconazole, confirmation, fluorescence, retest (AID 2467); type: functional, cell-based
Streptococcus = assay: Group A Streptococcus viability loss, dose response, counter-screen for streptokinase expression inhibitor project, luminescence, BacTiterGlo (AID 1915); type: functional, organism-based;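 further: potency for reduction of bacterial viability or growth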
[4] = target: T1, Short transient receptor potential channel 4 (Mus musculus, UniProt Q9QUQ5); assay: mouse TRPC4 channel activators, dose response, cell-based, HEK293 TRPC4/mu-opioid, Fluo-4 calcium (AID 434937); type: functional
T1 sequence (Q9QUQ5 whole entry): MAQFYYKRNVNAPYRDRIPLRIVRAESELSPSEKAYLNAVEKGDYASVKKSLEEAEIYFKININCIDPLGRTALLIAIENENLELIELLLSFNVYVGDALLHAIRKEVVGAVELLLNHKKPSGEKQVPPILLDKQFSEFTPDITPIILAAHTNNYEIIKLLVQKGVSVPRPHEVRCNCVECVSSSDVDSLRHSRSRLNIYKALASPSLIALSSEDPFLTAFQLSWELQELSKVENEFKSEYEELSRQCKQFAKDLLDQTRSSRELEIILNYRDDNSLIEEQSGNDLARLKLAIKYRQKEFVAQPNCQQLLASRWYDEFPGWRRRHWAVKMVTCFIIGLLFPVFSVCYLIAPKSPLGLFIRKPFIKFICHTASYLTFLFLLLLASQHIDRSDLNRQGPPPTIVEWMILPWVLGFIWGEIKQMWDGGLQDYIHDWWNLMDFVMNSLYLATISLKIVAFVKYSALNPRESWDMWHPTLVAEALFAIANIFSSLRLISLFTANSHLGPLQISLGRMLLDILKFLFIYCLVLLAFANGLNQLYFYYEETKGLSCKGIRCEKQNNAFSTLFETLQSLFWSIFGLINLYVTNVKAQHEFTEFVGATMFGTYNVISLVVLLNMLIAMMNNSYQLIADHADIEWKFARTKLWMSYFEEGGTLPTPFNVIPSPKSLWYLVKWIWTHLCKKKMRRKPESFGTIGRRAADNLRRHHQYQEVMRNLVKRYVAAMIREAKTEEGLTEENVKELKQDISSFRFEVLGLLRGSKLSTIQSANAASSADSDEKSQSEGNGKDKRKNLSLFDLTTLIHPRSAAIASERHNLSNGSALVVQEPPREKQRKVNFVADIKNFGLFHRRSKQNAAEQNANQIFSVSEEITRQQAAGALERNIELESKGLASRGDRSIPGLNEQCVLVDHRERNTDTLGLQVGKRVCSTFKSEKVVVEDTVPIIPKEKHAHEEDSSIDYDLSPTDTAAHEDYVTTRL

[5] = A cytotoxicity screen of small molecule inhibitors of the PhoP region in Salmonella typhi identified in the primary screen. [Related pubchem assays: 1850, 1864, 1985 ]; type: functional
Cytochrome P450 2D6 = Cytochrome P450 2D6 (Homo sapiens, UniProt P10635);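 further: CYP2D6 member of a cytochrome P450 panel assay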
[6] = cytotoxicity in HPDE-C7 cells, cell-based, fluorescence, HTS (AID 430); type: functional; conditions: Homo sapiens
[7] = cytotoxicity in KRAS-transformed pancreatic duct cells, primary screen, cell-based, fluorescence, HTS (AID 431); type: functional; conditions: Homo sapiens;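 further: cell line used: HPDE-C7K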
[8] = target: T2, Heat shock factor protein 1 (Mus musculus, UniProt P38532); assay: HSF1 potentiators in luciferase reporter cells, confirmation, cell-based, NIH3T3, luminescence, dose retest (AID 435004); type: functional;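 further: stress induced by proteasome inhibitor MG132 added 30 min after compound; luciferase reporter driven by HSF1 response element in NIH3T3 cells; actives raise luminescence as potentiators of the MG132 stress response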
T2 sequence (P38532 whole entry): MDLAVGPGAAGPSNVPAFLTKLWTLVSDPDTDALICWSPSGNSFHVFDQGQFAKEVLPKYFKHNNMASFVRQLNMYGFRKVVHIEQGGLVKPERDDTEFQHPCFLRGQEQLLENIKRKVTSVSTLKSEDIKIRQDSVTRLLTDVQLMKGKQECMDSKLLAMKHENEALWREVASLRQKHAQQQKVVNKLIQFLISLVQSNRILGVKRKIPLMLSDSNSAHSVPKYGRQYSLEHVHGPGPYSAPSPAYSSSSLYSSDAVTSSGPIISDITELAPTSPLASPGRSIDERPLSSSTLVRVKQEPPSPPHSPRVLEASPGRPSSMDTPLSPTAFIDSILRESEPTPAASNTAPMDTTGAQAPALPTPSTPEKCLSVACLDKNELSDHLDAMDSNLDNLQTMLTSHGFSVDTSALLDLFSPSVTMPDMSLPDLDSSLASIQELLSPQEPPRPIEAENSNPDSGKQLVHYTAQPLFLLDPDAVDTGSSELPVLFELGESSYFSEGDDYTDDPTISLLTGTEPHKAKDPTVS

Estrogen receptor = target: T3, Estrogen receptor (Homo sapiens, UniProt P03372);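 further: potency for inhibiting coactivator peptide recruitment to the receptor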
T3 sequence (P03372 whole entry): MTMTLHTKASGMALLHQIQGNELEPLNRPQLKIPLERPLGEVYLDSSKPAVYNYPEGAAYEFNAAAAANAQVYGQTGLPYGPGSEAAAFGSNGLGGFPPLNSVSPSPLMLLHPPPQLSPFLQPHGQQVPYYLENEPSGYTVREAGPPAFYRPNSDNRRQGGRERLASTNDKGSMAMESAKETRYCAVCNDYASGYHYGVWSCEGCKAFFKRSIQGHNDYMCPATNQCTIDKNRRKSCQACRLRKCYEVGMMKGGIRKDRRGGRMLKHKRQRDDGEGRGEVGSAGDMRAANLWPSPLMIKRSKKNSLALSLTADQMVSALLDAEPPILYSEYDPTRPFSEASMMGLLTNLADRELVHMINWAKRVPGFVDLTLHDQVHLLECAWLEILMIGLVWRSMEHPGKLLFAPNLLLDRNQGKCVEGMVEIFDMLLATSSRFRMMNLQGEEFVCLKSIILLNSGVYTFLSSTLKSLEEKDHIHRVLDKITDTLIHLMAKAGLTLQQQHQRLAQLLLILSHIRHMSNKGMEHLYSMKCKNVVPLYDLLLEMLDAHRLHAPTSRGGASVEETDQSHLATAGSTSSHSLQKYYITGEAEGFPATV

H9c2 = assay: cells; type: functional, cell-based; conditions: Rattus norvegicus, H9c2, Myocardium;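 further: confirmatory concentration-response retest of ultra-high-throughput screening hits for modulation of myocardial damage; cell death induced by hydrogen peroxide oxidative stress; compound pretreatment for 60 min then peroxide exposure for 2 h; potency is for protecting the cells against peroxide damage rather than for killing them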
[9] = target: T4, Endoribonuclease toxin MazF (Escherichia coli K-12, UniProt P0AE70); assay: MazF toxin RNase activators, dose response, biochemical, fluorescence, single-stranded RNA substrate, uHTS hits (AID 588481); type: functional
T4 sequence (P0AE70 whole entry): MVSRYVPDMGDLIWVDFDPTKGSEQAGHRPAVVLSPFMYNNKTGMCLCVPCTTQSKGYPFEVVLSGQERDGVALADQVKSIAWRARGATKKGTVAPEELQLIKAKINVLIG

INS1 = assay: beta cell apoptosis inhibitors, cytokine rescue, dose response, luminescence, retest (AID 449756); type: functional, cell-based; conditions: Rattus norvegicus;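 further: cell death triggered by IL-1 beta plus TNF-alpha plus IFN-gamma mixture; protective hits raise ATP signal compared with cytokine alone wells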
[10] = target: T4, Endoribonuclease toxin MazF; assay: fluorescent RNA oligo signal without MazF, dose response, counter-screen for MazEF activator project, biochemical, fluorescence, single-stranded RNase substrate (AID 588502); type: functional
Paired box protein Pax-8 = Paired box protein Pax-8 (Homo sapiens, UniProt Q06710); assay: inhibitors of PAX8-driven TPO luciferase reporter, dose response, RMG-I cells, cherry-pick (AID 687027); type: functional, cell-based;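 further: luciferase reporter driven by Pax8 target thyroperoxidase promoter measured by SteadyGlo luminescence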
[11] = NIH:OVCAR-3 ovarian cancer cell cytotoxicity, dose response, PAX8 inhibitor project, plate reader, dry powder samples (AID 743044); type: functional, cell-based
[12] = P. falciparum 3D7-ScDHODH growth inhibitors, dose response, SYBR Green, dry powder samples (AID 1159570); type: functional, cell-based;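 further: parasite growth measured after 72 hours of compound exposure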
[13] = HepG2 cell cytotoxicity, dose response, cytotoxicity control, plate reader, dry powder samples (AID 1159569); type: functional, cell-based;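 further: inhibitor potency with signal falling toward the positive control level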
[14] = P. falciparum Dd2 growth inhibitors, dose response, SYBR Green, cherry-picked samples (AID 1159567); type: functional, cell-based
[15] = P. falciparum Dd2 growth inhibitors, dose response, SYBR Green, dry powder samples (AID 1159566); type: functional, cell-based;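 further: potency for growth inhibition with lower SYBR green DNA signal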
[16] = P. falciparum ATP4 D1247Y mutant growth inhibitors, dose response, NITD609-resistant line, SYBR Green, dry powder (AID 1159571); type: functional, cell-based;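 further: parasites synchronized at ring stage by sorbitol before testing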
[17] = cytotoxicity in HEK-293T cells, dose response, cytotoxicity control for BCR NF-kB inhibitor project, luminescence, B-cell screen hits (AID 489021); type: functional, cell-based;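 further: HEK-293T cells carrying an NF-kB luciferase reporter; cells exposed to compound for about 14 hours before viability readout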
Cytochrome P450 3A4 = Cytochrome P450 3A4 (Homo sapiens, UniProt P08684); conditions: Potency;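 further: confirmatory qHTS run detecting inhibitors and substrates of CYP3A4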
Cytochrome P450 3A4, sequence (P08684 whole entry): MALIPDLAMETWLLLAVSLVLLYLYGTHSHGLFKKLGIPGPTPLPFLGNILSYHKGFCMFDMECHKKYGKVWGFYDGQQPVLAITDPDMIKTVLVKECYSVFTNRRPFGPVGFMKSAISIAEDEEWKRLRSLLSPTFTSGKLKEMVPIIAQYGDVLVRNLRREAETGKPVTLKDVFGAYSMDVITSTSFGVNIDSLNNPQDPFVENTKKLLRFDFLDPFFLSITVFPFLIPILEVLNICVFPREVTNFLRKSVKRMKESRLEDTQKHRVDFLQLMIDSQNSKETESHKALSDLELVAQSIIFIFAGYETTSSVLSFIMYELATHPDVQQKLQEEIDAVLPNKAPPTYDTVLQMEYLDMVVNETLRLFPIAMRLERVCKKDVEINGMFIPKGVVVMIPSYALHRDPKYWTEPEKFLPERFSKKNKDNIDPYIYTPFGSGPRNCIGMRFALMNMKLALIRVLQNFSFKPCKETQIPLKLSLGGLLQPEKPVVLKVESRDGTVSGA

Paired box protein Pax-8, sequence (Q06710 whole entry): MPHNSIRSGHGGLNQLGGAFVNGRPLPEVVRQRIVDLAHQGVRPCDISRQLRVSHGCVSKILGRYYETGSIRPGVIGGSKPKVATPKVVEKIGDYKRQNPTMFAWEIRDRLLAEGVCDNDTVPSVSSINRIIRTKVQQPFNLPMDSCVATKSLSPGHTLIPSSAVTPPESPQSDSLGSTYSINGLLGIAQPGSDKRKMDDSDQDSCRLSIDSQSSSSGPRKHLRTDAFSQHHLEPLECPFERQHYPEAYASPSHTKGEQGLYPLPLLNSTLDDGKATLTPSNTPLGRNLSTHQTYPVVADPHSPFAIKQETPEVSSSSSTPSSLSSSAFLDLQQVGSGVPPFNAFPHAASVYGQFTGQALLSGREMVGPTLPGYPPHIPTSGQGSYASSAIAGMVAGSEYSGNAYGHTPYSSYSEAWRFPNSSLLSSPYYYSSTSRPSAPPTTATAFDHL
Cytochrome P450 2D6, sequence (P10635 whole entry): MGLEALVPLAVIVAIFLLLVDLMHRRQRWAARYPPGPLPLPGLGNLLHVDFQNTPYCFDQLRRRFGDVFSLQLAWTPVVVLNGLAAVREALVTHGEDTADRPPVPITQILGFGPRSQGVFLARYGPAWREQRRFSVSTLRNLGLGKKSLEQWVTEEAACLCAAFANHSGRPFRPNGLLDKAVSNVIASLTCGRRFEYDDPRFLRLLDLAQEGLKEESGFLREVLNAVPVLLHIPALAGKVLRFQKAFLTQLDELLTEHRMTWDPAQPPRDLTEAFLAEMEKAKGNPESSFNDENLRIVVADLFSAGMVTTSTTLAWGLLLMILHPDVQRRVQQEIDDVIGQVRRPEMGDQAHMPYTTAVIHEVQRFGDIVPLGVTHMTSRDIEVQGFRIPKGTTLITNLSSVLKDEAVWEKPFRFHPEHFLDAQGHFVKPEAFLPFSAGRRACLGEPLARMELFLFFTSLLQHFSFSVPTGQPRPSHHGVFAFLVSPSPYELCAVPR

O=C(CCc1ccccc1)NNC(=S)NC(=O)c1ccc(Cl)cc1
EC50 [1]: > 150 µM (inconclusive) | EC50 [2]: 335 nM (active) | EC50 [3]: 2.16 µM (active) | EC50 (Streptococcus): 6.45 µM (active) | EC50 [4]: 5.31 µM (active)

COc1ccc(CCN(C(=O)C(F)(F)F)C(C(=O)NC2CCCC2)c2cccs2)cc1 (stereo unspecified)
EC50 [5]: > 50 µM (active) | AC50 (Cytochrome P450 2D6): 25.1 µM (inconclusive)

O=C(Oc1cccc2cccnc12)c1ccc(Br)o1
EC50 [6]: 13.9 µM (active) | EC50 [7]: > 20 µM (not active) | EC50 [8]: > 260 µM (inactive)

COc1nnc(-c2ccc(C)c(S(=O)(=O)NCCO)c2)c2ccccc12
IC50 (Estrogen receptor): > 50 µM (not active) | IC50 (H9c2): > 79 µM (inactive)

COc1cccc(-c2nc(NCc3ccco3)c3ccccc3n2)c1O
EC50 [6]: > 20 µM (not active) | EC50 [7]: 1.11 µM (active)

Cc1ccc(C2=CC(c3ccc(N(C)C)cc3)n3nnnc3N2)cc1 (stereo unspecified)
EC50 [6]: 0.09 µM (active) | EC50 [7]: 0.21 µM (active) | EC50 [9]: > 99 µM (inactive) | AC50 (INS1): 6.88 µM (active) | EC50 [10]: > 99 µM (inactive)

COc1ccc(C(=O)C2CCCN(Cc3ccc(Sc4nncn4C)o3)C2)cc1F (stereo unspecified)
EC50 [4]: 3.35 µM (active)

C[C@@H]1CCCCO[C@@H](CN(C)Cc2ccc(Cl)c(Cl)c2)[C@H](C)CN([C@@H](C)CO)C(=O)c2cc(NC(=O)Nc3ccc(C(F)(F)F)cc3)ccc2O1
AC50 (Paired box protein Pax-8): 5.08 µM (active) | AC50 [11]: 29.6 µM (active)

C[C@@H]1CCCCO[C@@H](CN(C)S(=O)(=O)c2ccc(Cl)cc2)[C@H](C)CN([C@@H](C)CO)C(=O)c2cc(N(C)C)ccc2O1
AC50 (Paired box protein Pax-8): 3.28 µM (active) | AC50 [11]: 28.3 µM (active)

C[C@H](CO)N1C[C@H](C)[C@@H](CN(C)C(=O)C2CCCCC2)Oc2ncc(/C=C/c3ccccc3)cc2C1=O
AC50 [12]: 0.608 µM (active) | AC50 [13]: 50.2 µM (active) | AC50 [14]: 0.658 µM (active) | AC50 [15]: 350 nM (active) | AC50 [16]: 0.451 µM (active)

C[C@H]1CN([C@@H](C)CO)C(=O)c2c(c3ccccc3n2C)-c2ccccc2CO[C@H]1CN(C)C(=O)c1cc(Cl)cc(Cl)c1
AC50 [12]: 2.36 µM (active) | AC50 [13]: 27.8 µM (active) | AC50 [14]: 2.14 µM (active) | AC50 [15]: 1480 nM (active) | AC50 [16]: 1.58 µM (active)

COc1ccc(C#Cc2ccc3c(c2)[C@H]2[C@H](CCN2Cc2ccncc2)[C@H](CO)N3)cc1
AC50 [12]: 1.18 µM (active) | AC50 [13]: 65.7 µM (active) | AC50 [14]: 1.19 µM (active) | AC50 [15]: 922 nM (active) | AC50 [16]: 1.11 µM (active)

C=C(C)[C@@H]1CC[C@]2(C(=O)O)CC[C@]3(C)[C@H](CC[C@@H]4[C@@]5(C)CCC(=O)C(C)(C)[C@@H]5CC[C@]43C)[C@@H]12 [BETUNOLIC ACID]
EC50 [2]: 1680 nM (active) | EC50 (Streptococcus): 2.88 µM (active) | IC50 [17]: > 80 µM (inactive)

COc1cc(-c2cc(=O)c3c(O)c(OC)c(OC)c(OC)c3o2)cc(OC)c1OC [GARDENIN]
IC50 [17]: > 80 µM (inactive) | AC50 (Cytochrome P450 3A4): 3.16 µM (inconclusive)

CCOc1ccc2ccccc2c1C(=O)N[C@@H]1C(=O)N2[C@@H]1SC(C)(C)[C@@H]2C(=O)O [NAFCILLIN SODIUM]
EC50 [5]: > 50 µM (active) | IC50 (H9c2): > 79 µM (inactive)
